Measurements reported in patent US11834453B2, “Substituted pyrimido[5,4-d]pyrimidines as HER2 inhibitors” (Array BioPharma Inc., priority 2020, dated 2023).

Columns and labels:
EGFR wild type (EGFR WT) = EGFR wild type (EGFR WT) (Homo sapiens (Human), UniProt P00533); test: Cellular phosphorylation assay, EGF-stimulated EGFR phosphorylation in engineered NIH 3T3 cells, Phospho-EGFR DuoSet IC ELISA, Assay 5; assay type: cell-based
Outline: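 NIH 3T3 cells expressing EGFR WT (20,000/well, attached overnight) were exposed to serially diluted compound for 1 h at 37 °C, then stimulated with 100 ng/ml rEGF for 10 min. Phospho-EGFR in lysates measured by sandwich ELISA optical density; IC50 from curves.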

ErbB2 WT = ErbB2 WT (Homo sapiens (Human), UniProt P04626); test: ErbB enzyme assay (CisBio HTRF KinEASE-TK), Assay 2; assay type: biochemical
Outline: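 ErbB2 phosphorylates 250 nM biotin-TK substrate at 1 mM ATP in 25 mM HEPES pH 7.4, 10 mM MgCl2, 0.01% Triton X-100 and 2% DMSO, for 30 min at 22 °C. Product is detected by HTRF with Sa-XL665 and TK-Ab-Cryptate. Percent of control is set by DMSO-only wells and pre-quenched wells.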

[1] = target: ErbB2 insYVMA (HER2-YVMA, SEQ ID NO: 2) (Homo sapiens, UniProt P04626, INS775YVMA/P1170A); test: biochemical; conditions: ErbB2 insYVMA enzyme assay; read-out: Assay 1 IC50
EGFR = EGFR (Homo sapiens (Human), UniProt P00533); test: ErbB enzyme assay (CisBio HTRF KinEASE-TK), Assay 3; assay type: biochemical
Outline: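 Kinase incubated 30 min at 22 °C with 250 nM biotinylated TK substrate, 1 mM ATP and serially diluted compound in 25 mM HEPES pH 7.4, 10 mM MgCl2, 0.01% Triton X-100, 2% DMSO. Phosphorylation read by HTRF (Sa-XL665/TK-Ab-Cryptate); IC50 from 4-parameter fit of percent of control.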

[2] = target: ErbB2 with Exon 20 YVMA insertion (HER2-YVMA) (Homo sapiens (Human), UniProt P04626, INS775YVMA); test: Cellular phosphorylation assay, constitutive ErbB2 phosphorylation (Y1196) in engineered NIH 3T3 cells, Assay 4; assay type: cell-based
Outline: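 Engineered NIH 3T3 cells expressing HER2-YVMA treated with compounds 1 h at 37 °C, then formaldehyde-fixed and methanol-permeabilized. pErbB2 Y1196 detected by in-cell infrared immunofluorescence, normalized to GAPDH. IC50 from the normalized curves.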

ErbB2 WT, sequence (P04626 23-1255): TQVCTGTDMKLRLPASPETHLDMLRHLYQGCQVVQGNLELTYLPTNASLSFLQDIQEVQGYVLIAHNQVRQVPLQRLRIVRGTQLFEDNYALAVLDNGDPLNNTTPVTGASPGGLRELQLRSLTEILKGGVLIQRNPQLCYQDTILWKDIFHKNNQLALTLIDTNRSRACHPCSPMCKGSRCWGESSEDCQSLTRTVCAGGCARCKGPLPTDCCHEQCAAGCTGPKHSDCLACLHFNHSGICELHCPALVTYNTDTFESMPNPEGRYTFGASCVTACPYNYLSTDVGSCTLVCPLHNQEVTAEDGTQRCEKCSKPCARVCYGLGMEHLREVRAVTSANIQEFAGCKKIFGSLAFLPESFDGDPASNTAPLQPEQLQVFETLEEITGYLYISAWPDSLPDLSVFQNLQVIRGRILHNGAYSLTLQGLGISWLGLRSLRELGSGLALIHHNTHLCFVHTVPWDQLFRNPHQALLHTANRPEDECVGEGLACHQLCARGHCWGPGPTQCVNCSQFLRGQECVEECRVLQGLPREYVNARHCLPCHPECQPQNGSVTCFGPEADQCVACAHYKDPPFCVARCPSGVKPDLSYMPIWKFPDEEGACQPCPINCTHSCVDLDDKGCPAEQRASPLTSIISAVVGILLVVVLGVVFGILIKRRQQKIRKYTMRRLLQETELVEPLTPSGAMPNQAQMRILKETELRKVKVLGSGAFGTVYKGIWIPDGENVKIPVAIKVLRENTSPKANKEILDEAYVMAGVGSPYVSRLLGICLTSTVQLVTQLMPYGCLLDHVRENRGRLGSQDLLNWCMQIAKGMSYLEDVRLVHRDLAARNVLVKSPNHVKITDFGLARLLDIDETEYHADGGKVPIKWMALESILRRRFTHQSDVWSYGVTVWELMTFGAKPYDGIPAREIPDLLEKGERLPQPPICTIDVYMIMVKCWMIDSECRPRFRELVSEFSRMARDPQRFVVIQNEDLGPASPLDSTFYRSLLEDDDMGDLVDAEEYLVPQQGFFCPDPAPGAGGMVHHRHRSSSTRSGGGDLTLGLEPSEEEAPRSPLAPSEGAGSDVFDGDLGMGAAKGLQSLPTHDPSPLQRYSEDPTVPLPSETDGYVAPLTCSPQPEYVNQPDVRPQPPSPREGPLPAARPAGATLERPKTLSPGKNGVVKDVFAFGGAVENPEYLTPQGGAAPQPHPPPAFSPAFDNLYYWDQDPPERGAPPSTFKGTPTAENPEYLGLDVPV
ErbB2 insYVMA (HER2-YVMA, SEQ ID NO: 2), sequence (P04626 with tags, fused parts or gaps INS775YVMA/P1170A limits assumed): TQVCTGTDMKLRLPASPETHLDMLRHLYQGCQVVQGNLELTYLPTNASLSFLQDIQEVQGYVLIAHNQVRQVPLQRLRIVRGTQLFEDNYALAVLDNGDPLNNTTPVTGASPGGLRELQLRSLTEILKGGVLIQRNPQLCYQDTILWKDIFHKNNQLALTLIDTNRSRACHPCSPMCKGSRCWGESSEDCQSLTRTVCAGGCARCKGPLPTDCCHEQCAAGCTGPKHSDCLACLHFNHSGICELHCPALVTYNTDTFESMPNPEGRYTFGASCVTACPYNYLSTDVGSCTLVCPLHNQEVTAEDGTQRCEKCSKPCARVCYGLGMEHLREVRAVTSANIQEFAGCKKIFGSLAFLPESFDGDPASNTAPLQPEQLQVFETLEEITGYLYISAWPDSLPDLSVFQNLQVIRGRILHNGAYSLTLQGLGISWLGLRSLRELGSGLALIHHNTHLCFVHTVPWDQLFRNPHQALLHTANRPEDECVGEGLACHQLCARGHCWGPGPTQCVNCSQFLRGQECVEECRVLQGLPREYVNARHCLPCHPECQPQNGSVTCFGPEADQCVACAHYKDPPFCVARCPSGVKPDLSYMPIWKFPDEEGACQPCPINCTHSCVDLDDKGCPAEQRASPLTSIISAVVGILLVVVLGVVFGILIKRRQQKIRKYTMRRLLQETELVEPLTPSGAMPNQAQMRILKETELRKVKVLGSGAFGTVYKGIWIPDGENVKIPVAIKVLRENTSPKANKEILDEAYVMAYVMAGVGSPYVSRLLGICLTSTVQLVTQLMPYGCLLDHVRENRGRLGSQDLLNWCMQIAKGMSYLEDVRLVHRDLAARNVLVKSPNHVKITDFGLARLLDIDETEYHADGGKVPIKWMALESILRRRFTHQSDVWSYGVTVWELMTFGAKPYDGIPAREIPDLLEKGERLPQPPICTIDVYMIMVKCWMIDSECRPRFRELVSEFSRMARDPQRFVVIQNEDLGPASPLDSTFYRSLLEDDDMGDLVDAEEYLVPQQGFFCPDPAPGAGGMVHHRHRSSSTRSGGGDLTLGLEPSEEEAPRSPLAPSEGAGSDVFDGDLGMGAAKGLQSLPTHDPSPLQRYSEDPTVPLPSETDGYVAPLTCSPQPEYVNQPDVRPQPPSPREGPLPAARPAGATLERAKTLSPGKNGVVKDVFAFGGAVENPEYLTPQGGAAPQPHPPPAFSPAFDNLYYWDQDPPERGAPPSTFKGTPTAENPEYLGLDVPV
ErbB2 with Exon 20 YVMA insertion (HER2-YVMA), sequence (P04626 other isoform, or with tags, fused parts or gaps ins YVMA behind 775): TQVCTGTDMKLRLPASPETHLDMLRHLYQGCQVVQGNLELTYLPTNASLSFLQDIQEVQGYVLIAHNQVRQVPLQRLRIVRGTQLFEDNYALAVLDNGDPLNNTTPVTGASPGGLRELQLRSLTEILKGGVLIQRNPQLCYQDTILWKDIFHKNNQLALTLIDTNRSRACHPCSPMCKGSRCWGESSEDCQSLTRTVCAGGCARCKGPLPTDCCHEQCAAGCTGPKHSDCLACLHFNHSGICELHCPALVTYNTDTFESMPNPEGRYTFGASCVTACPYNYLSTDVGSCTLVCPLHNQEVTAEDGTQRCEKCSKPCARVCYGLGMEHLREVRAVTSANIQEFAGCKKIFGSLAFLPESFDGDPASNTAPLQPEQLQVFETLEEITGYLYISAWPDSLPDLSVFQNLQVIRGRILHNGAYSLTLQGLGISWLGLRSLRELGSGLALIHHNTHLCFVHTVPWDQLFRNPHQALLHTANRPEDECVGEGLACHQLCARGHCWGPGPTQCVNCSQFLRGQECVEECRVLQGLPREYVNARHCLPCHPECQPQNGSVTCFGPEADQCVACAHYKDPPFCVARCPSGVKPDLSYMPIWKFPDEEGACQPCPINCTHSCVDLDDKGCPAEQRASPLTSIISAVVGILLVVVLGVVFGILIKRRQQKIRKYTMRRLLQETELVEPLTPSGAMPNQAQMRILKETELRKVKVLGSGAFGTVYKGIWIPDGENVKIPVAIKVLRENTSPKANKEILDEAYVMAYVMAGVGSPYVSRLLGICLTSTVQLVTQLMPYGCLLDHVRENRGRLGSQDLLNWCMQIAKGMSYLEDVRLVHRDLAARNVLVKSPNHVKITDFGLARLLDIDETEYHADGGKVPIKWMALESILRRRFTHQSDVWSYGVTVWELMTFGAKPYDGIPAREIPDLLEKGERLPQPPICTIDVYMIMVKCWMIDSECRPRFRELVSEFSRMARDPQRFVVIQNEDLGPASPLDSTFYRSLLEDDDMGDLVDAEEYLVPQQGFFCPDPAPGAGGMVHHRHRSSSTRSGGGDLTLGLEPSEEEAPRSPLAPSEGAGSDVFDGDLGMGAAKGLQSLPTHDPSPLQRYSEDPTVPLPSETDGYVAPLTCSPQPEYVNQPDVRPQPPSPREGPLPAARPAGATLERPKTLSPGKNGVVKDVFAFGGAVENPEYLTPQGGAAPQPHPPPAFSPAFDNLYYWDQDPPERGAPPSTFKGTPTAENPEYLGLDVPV
EGFR, sequence (P00533 25-1210): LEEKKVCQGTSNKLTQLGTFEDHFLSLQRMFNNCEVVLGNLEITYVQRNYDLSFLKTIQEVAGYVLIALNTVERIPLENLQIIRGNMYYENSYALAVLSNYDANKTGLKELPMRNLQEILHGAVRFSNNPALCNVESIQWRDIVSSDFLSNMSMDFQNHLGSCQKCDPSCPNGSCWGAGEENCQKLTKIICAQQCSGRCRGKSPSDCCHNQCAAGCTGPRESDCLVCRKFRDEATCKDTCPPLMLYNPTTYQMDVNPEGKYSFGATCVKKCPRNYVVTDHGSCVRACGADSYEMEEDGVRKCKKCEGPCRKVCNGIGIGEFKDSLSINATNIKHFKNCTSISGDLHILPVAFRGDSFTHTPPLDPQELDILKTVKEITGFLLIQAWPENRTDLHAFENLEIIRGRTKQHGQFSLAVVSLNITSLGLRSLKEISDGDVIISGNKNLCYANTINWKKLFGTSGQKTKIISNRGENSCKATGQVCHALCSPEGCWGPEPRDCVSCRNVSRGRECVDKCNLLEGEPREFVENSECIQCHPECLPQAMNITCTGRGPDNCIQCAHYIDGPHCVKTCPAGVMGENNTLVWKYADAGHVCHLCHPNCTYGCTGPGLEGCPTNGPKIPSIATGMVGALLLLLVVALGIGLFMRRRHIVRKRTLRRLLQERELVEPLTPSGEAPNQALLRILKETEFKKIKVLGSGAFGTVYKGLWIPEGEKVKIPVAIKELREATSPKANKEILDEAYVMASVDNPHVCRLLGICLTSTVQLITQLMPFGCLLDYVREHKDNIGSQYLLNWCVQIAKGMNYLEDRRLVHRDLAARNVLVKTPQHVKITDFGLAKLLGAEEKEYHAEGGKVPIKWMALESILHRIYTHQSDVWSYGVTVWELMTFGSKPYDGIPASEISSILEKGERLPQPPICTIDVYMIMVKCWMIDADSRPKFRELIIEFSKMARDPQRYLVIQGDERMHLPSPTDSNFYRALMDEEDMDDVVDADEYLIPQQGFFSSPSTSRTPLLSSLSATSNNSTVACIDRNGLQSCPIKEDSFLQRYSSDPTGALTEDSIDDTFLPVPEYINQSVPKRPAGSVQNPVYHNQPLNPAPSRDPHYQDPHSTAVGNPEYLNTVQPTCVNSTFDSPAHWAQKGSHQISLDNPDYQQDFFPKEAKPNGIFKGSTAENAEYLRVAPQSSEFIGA

Compound	IC50 (EGFR wild type (EGFR WT)) [nM]	IC50 (ErbB2 WT) [nM]	IC50 [1] [nM]	IC50 (EGFR) [nM]	IC50 [2] [nM]
CNc1ncc2ncnc(Nc3ccc(Oc4ccc5csnc5c4)c(C)c3)c2n1 [Example 241]	≥ 5000	123	28.3	1640	244
Cc1cc(Nc2ncnc3cnc(N4CCOCC4)nc23)ccc1Oc1ccc2csnc2c1 [Example 243]	3040	264	40.6	2490	173
Cc1cc(Nc2ncnc3cnc(N4CC5CCC(C4)O5)nc23)ccc1Oc1ccc2c(c1)ncn2C [Example 256]	≥ 5000	71.7	49.1	≥ 10000	12.2
Cc1cc(Nc2ncnc3cnc(N4CCOC[C@H]4C)nc23)ccc1Oc1ccc2c(c1)ncn2C [Example 257]	≥ 5000	8.2	19.8	3270	9.4
CO[C@H]1C[C@@H](Nc2ncc3ncnc(Nc4ccc(Oc5ccc6c(c5)ncn6C)c(C)c4)c3n2)C1 [Example 260]	≥ 5000	42	31.8	≥ 10000	21.5
Cc1cc(Nc2ncnc3cnc(NC(C)C)nc23)ccc1Oc1ccc2c(c1)ncn2C [Example 261]	≥ 5000	86.1	48.8	≥ 10000	21.9
Cc1cc(Nc2ncnc3cnc(N4CC5(CC5)CS4(=O)=O)nc23)ccc1Oc1ccc2c(c1)ncn2C [Example 264]	≥ 5000	42.4	35.1	≥ 10000	6.6
CSc1ncc2ncnc(Nc3ccc(Oc4ccc5c(c4)ncn5C)c(C)c3F)c2n1 [Example 266]	≥ 5000	796	115	≥ 10000	642
Cc1cc(Nc2ncnc3cnc(NC4CC4)nc23)ccc1Oc1ccc2c(c1)ncn2C [Example 270]	≥ 5000	22.2	10.9	≥ 10000	3.1
Cc1cc(Nc2ncnc3cnc(NC4CCCC4)nc23)ccc1Oc1ccc2c(c1)ncn2C [Example 273]	≥ 5000	202	95	≥ 10000	33.5
Cc1cc(Nc2ncnc3cnc(N[C@H]4CNC[C@H]4F)nc23)ccc1Oc1ccc2c(c1)ncn2C [Example 276]	≥ 5000	13.5	8	1360	41.5
Cc1cc(Nc2ncnc3cnc(N4CCN[C@H](C)C4)nc23)ccc1Oc1ccc2c(c1)ncn2C [Example 277]	≥ 5000	42.8	16	≥ 10000	28.3
Cc1cc(Nc2ncnc3cnc(N4CCN[C@@H](C)C4)nc23)ccc1Oc1ccc2c(c1)ncn2C [Example 278]	≥ 5000	42.9	22	9550	13.5
Cc1cc(Nc2ncnc3cnc(O[C@H]4CCN(C)C[C@H]4F)nc23)ccc1Oc1ccc2c(c1)ncn2C [Example 286]	≥ 5000	468	98.1	≥ 10000	81.4
Cc1cc(Nc2ncnc3cnc(O[C@H]4CN(C)C[C@H]4F)nc23)ccc1Oc1ccc2c(c1)ncn2C [Example 287]	≥ 5000	118	42.9	≥ 10000	60.9
Cc1cc(Nc2ncnc3cnc(O[C@H]4CCN(C)C[C@@H]4F)nc23)ccc1Oc1ccc2c(c1)ncn2C [Example 288]	≥ 5000	262	79.8	≥ 10000	94
Cc1cc(Nc2ncnc3cnc(O[C@H]4CNCC[C@@H]4F)nc23)ccc1Oc1ccc2c(c1)ncn2C [Example 289]	≥ 5000	584	109	≥ 10000	73.9
Cc1cc(Nc2ncnc3cnc(O[C@H]4CNCC[C@H]4F)nc23)ccc1Oc1ccc2c(c1)ncn2C [Example 290]	≥ 5000	601	92.5	≥ 10000	83.5
Cc1cc(Nc2ncnc3cnc(OCC4(F)CNC4)nc23)ccc1Oc1ccc2c(c1)ncn2C [Example 291]	≥ 5000	446	76.2	≥ 10000	84.1

Compound	IC50 (EGFR wild type (EGFR WT)) [nM]	IC50 (ErbB2 WT) [nM]	IC50 [1] [nM]	IC50 (EGFR) [nM]	IC50 [2] [nM]
Cc1cc(Nc2ncnc3cnc(OCC4(F)CN(C)C4)nc23)ccc1Oc1ccc2c(c1)ncn2C [Example 292]	≥ 5000	558	105	≥ 10000	132
Cc1cc(Nc2ncnc3cnc(O[C@H]4CN(C)CC[C@H]4F)nc23)ccc1Oc1ccc2c(c1)ncn2C [Example 293]	≥ 5000	568	87.7	≥ 10000	81.2
Cc1cc(Nc2ncnc3cnc(O[C@@H]4CNC[C@H](F)C4)nc23)ccc1Oc1ccc2c(c1)ncn2C [Example 295]	≥ 5000	552	115	≥ 10000	40.4
Cc1cc(Nc2ncnc3cnc(O[C@H]4CN(C)CC[C@@H]4F)nc23)ccc1Oc1ccc2c(c1)ncn2C [Example 296]	≥ 5000	141	59.6	≥ 10000	68.2
COC1(C)CN(c2ncc3ncnc(Nc4ccc(Oc5ccc6c(c5)ncn6C)c(C)c4)c3n2)C1 [Example 298]	≥ 5000	234	40.2	≥ 10000	38.6
Cc1cc(Nc2ncnc3cnc(N4CC5(C4)CC5(F)F)nc23)ccc1Oc1ccc2c(c1)ncn2C [Example 300]	≥ 5000	284	75.5	≥ 10000	30.7
Cc1cc(Nc2ncnc3cnc(O[C@@H]4CNCC4(F)F)nc23)ccc1Oc1ccc2c(c1)ncn2C [Example 301]	≥ 5000	241	39.1	≥ 10000	60.8
Cc1cc(Nc2ncnc3cnc(O[C@H]4C[C@@H](F)CN(C)C4)nc23)ccc1Oc1ccc2c(c1)ncn2C [Example 302]	≥ 5000	391	65.9	≥ 10000	141
Cc1cc(Nc2ncnc3cnc(O[C@H]4CNCC4(F)F)nc23)ccc1Oc1ccc2c(c1)ncn2C [Example 303]	≥ 5000	403	64.2	≥ 10000	257
Cc1cc(Nc2ncnc3cnc(N(C)[C@@H]4CN(C)C[C@@H]4F)nc23)ccc1Oc1ccc2c(c1)ncn2C [Example 305]	≥ 5000	20.3	14.1	1860	10.8
Cc1c(Oc2ccn3ncnc3c2)ccc(Nc2ncnc3cnc(N(C)CC(C)(C)O)nc23)c1F [Example 306]	≥ 5000	35.1	16.7	6840	1000
Cc1c(Oc2ccn3ncnc3c2)ccc(Nc2ncnc3cnc(N4CC[C@](C)(O)C4)nc23)c1F [Example 307]	≥ 5000	54.3	28.3	≥ 10000	1150
Cc1c(Oc2ccn3ncnc3c2)ccc(Nc2ncnc3cnc(N4CC[C@@](C)(O)C4)nc23)c1F [Example 308]	≥ 5000	28.8	15.1	≥ 10000	492
Cc1c(Oc2ccn3ncnc3c2)ccc(Nc2ncnc3cnc(N4CC[C@H]4C(C)(C)O)nc23)c1F [Example 309]	≥ 5000	223	184	≥ 10000	5000
Cc1c(Oc2ccn3ncnc3c2)ccc(Nc2ncnc3cnc(N4CC[C@H](O)C4)nc23)c1F [Example 311]	≥ 5000	76.3	75.3	≥ 10000	3330
Cc1c(Oc2ccn3ncnc3c2)ccc(Nc2ncnc3cnc(N4CC[C@@H](O)C4)nc23)c1F [Example 312]	≥ 5000	54.2	38.9	≥ 10000	1590
Cc1c(Oc2ccn3ncnc3c2)ccc(Nc2ncnc3cnc(N(C)CC4(O)CC4)nc23)c1F [Example 314]	≥ 5000	88.1	29.8	6080	2020
Cc1c(Oc2ccn3ncnc3c2)ccc(Nc2ncnc3cnc(N(C)CC4(O)CCC4)nc23)c1F [Example 315]	≥ 5000	64.8	39.3	3690	1490
